As a reminder, the bioavailability is the share of a dose that reaches the circulation, judged against a reference dose that is usually intravenous. A high value points to good availability.

The record followed here is ChEMBL document CHEMBL4706602, “β-lactam antibiotics: An overview from a medicinal chemistry perspective” (Eur J Med Chem, 2020).

Series [1] in a line: Half life of compound in human. It counts as ADME.
Series [2] can be described thus: Half life of compound. It counts as physicochemical.
The nature of series [3]: Protein binding in plasma (unknown origin). It counts as ADME, cell-free. As to conditions: read-out: PPB (converted).
Series [4] can be described thus: Half life in human at 600 mg, iv administered every 12 hrs as 1 hr infusion. It counts as ADME, organism-based. As to conditions: in vivo.
Series [5] is described as follows: Drug excretion in human urine assessed as unaltered drug. It counts as ADME. As to conditions: read-out: Drug excretion.
The nature of series [6]: Bioavailability in human at 500 mg, IM. It counts as ADME, organism-based. The following applies: in vivo.
Series [7] in a line: Oral bioavailability in human. The following applies: in vivo. It counts as ADME, organism-based.
A short description of series [8]: Elimination half life in human at 1 g, iv infusion for 30 mins. It counts as ADME, organism-based. The following applies: in vivo, read-out: beta t1/2 (converted).
Series [9] is described as follows: Chemical stability of compound assessed as compound degradation at 37 degreeC measured for 24 hrs. It counts as physicochemical. As to conditions: read-out: Drug degradation.

Turning to `CC1(C)S[C@@H]2[C@H](NC(=O)C(C(=O)O)c3ccccc3)C(=O)N2[C@H]1C(=O)O` (some centres not stated) [CARBENICILLIN], in series [1], the half-life is 60 min.

In series [2], `CC1(C)S[C@@H]2[C@H](NC(=O)Cc3ccccc3)C(=O)N2[C@H]1C(=O)O` [PENICILLIN G] displayed a half-life of 20 min. For the same molecule, in [3], the fraction unbound is 0.4.

For the molecule `Cc1onc(-c2ccccc2)c1C(=O)N[C@@H]1C(=O)N2[C@@H]1SC(C)(C)[C@@H]2C(=O)O` [OXACILLIN], in [3], the fraction unbound is 0.1.

As to `Cc1onc(-c2ccccc2Cl)c1C(=O)N[C@@H]1C(=O)N2[C@@H]1SC(C)(C)[C@@H]2C(=O)O` [CLOXACILLIN], the fraction unbound in series [3] was 0.1.

`CCO/N=C(\C(=O)N[C@@H]1C(=O)N2C(C(=O)O)=C(Sc3nc(-c4cc[n+](C)cc4)cs3)CS[C@H]12)c1nsc(NP(=O)(O)O)n1.[Na+]` had a half-life in series [4] of 96 min.

Regarding `CC1(C)S[C@@H]2[C@H](NC(=O)[C@H](N)c3ccc(O)cc3)C(=O)N2[C@H]1C(=O)O` [AMOXICILLIN], in [3], the fraction unbound is 0.7.

Regarding `C[C@H]1[C@H](NC(=O)/C(=N\OC(C)(C)C(=O)O)c2csc(N)n2)C(=O)N1S(=O)(=O)O` [AZTREONAM], the dose excreted in series [5] was 68%. Also, the results for the bioavailability in [6] and in series [7] were 100% and 1%, respectively.

Turning to `C[C@@H](O)[C@H]1C(=O)N2C(C(=O)O)=C(S[C@@H]3CN[C@H](C(=O)N(C)C)C3)[C@H](C)[C@H]12` [MEROPENEM], the half-life in [8] was 60 min. In series [9], the degraded at 24 h was 60%.
